# Laboratory results from the supplement of paper PMC11061612.
# Experiments:
# Test in all cases: Bliss excess, mean over the matrix (fraction); higher = more synergy
# [1] = system: TGBC11TKB (Gastric Carcinoma)
# How it was run: (§1)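 After 24 hours at 37°C and 5% CO2 in 1536-well plates, cells in DMEM/F12 or RPMI plus 10% FBS received two-drug dose matrices for 72 hours. Viability came from CellTiter-Glo 2.0 luminescence and was scaled as inhibition, anchored at 0 by vehicle wells and at 1 by blank wells. Combination Emax is taken as the second-highest inhibition in the matrix, and Bliss excess as the observed combination effect less EA + EB − EA·EB, with EA and EB the single-agent effects.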
# [2] = system: SCC-9 (Oral Cavity Carcinoma)
# How it was run: as §1
# [3] = system: MFE-319 (Endometrial Carcinoma)
# How it was run: as §1
# [4] = system: NCI-H1573 (Lung Adenocarcinoma)
# How it was run: as §1
# [5] = system: SNU-C1 (Colorectal Carcinoma)
# How it was run: as §1
# A704 (Kidney Carcinoma) = system: A704 (Kidney Carcinoma)
# How it was run: as §1
# [6] = system: KU-19-19 (Bladder Carcinoma)
# How it was run: as §1
# [7] = system: VMRC-LCD (Lung Adenocarcinoma)
# How it was run: as §1
# [8] = system: KYSE-150 (Esophageal Squamous Cell Carcinoma)
# How it was run: as §1
# [9] = system: BV-173 (Chronic Myelogenous Leukemia)
# How it was run: as §1
# RPMI-7951 (Melanoma) = system: RPMI-7951 (Melanoma)
# How it was run: as §1
# [10] = system: HC-1 (Other Blood Carcinomas)
# How it was run: as §1
# [11] = system: NCI-N87 (Gastric Carcinoma)
# How it was run: as §1
# [12] = system: KINGS-1 (Low Grade Glioma)
# How it was run: as §1
# U-87-MG (Glioblastoma) = system: U-87-MG (Glioblastoma)
# How it was run: as §1
# GI-1 (Glioblastoma) = system: GI-1 (Glioblastoma)
# How it was run: as §1
# [13] = system: NCI-H322M (Lung Adenocarcinoma)
# How it was run: as §1
# IMR-5 (Neuroblastoma) = system: IMR-5 (Neuroblastoma)
# How it was run: as §1
# NH-12 (Neuroblastoma) = system: NH-12 (Neuroblastoma)
# How it was run: as §1
# [14] = system: NCI-H2405 (Lung Adenocarcinoma)
# How it was run: as §1
Structure (SMILES),Bliss excess [1],Bliss excess [2],Bliss excess [3],Bliss excess [4],Bliss excess [5],Bliss excess (A704 (Kidney Carcinoma)),Bliss excess [6],Bliss excess [7],Bliss excess [8],Bliss excess [9],Bliss excess (RPMI-7951 (Melanoma)),Bliss excess [10],Bliss excess [11],Bliss excess [12],Bliss excess (U-87-MG (Glioblastoma)),Bliss excess (GI-1 (Glioblastoma)),Bliss excess [13],Bliss excess (IMR-5 (Neuroblastoma)),Bliss excess (NH-12 (Neuroblastoma)),Bliss excess [14]
"Cc1c2c(nn1C)CSCc1cc(n(C)n1)CSc1cc(c3ccccc3c1)OCCCc1c(C(=O)O)n(C)c3c-2c(Cl)ccc13 [AZD5991] + Cc1cc2ncnn2cc1Nc1ncc2c(n1)n(C1CCOCC1)c(=O)n2C [AZD7648] (first compound max 1 µM, 7x7, partner max 10 µM)",-0.0954,-0.0716,-0.0534,0.0523,-0.0742,-0.0914,0.0025,-0.0302,-0.0195,-0.0512,-0.0317,-0.024,-0.0367,-0.0095,-0.0311,0.0021,-0.05,0.0226,-0.061,-0.0391
"CC1(C)CCC(CN2CCN(c3ccc(C(=O)NS(=O)(=O)c4ccc(NCC5CCOCC5)c([N+](=O)[O-])c4)c(Oc4cnc5[nH]ccc5c4)c3)CC2)=C(c2ccc(Cl)cc2)C1 [Venetoclax] + CN(C)CCCOc1ccc(-c2ccc3ncc4c(c3c2)n(C2CCOCC2)c(=O)n4C)cn1 [AZD0156] (first compound max 1 µM, 7x7, partner max 1 µM)",-0.0022,-0.0351,0.0513,-0.0249,-0.051,-0.0717,-0.0167,-0.0333,-0.0356,-0.0598,0,-0.0244,-0.0763,-0.0746,-0.0163,0.0106,-0.0103,-0.0087,-0.0978,-0.0324
"CC1(C)CCC(CN2CCN(c3ccc(C(=O)NS(=O)(=O)c4ccc(NCC5CCOCC5)c([N+](=O)[O-])c4)c(Oc4cnc5[nH]ccc5c4)c3)CC2)=C(c2ccc(Cl)cc2)C1 [Venetoclax] + C[C@@H]1COCCN1C2=NC(=NC(=C2)C3(CC3)[S@](=N)(=O)C)C4=C5C=CNC5=NC=C4 [AZD6738] (first compound max 1 µM, 7x7, partner max 10 µM)",-0.0273,-0.0433,-0.0494,-0.0313,-0.124,-0.0758,-0.0844,-0.0393,-0.0979,-0.0634,-0.0474,0.0289,-0.0232,-0.0432,-0.0487,-0.0025,-0.0433,0.0104,-0.0647,-0.06
"CC(=O)c1c(C)c2cnc(Nc3ccc(N4CCNCC4)cn3)nc2n(C2CCCC2)c1=O [Palbociclib] + Cc1c2c(nn1C)CSCc1cc(n(C)n1)CSc1cc(c3ccccc3c1)OCCCc1c(C(=O)O)n(C)c3c-2c(Cl)ccc13 [AZD5991] (first compound max 10 µM, 7x7, partner max 1 µM)",-0.0473,-0.0368,-0.111,-0.0539,-0.0562,-0.0629,-0.0215,-0.0288,-0.0278,-0.105,-0.0742,-0.152,-0.0373,0.0346,-0.0527,-0.0123,-0.0174,0.0155,0.0045,-0.0149
"Cc1c2c(nn1C)CSCc1cc(n(C)n1)CSc1cc(c3ccccc3c1)OCCCc1c(C(=O)O)n(C)c3c-2c(Cl)ccc13 [AZD5991] + C[C@@H]1COCCN1C2=NC(=NC(=C2)C3(CC3)[S@](=N)(=O)C)C4=C5C=CNC5=NC=C4 [AZD6738] (first compound max 1 µM, 7x7, partner max 10 µM)",-0.0218,0.0134,0.05,-0.033,-0.0626,-0.0522,-0.0013,0.0179,0.0556,-0.0537,0.0095,0.0639,-0.0285,0.0151,-0.0241,-0.0238,0.0012,0.0245,0.0031,0.0105
"Cc1c2c(nn1C)CSCc1cc(n(C)n1)CSc1cc(c3ccccc3c1)OCCCc1c(C(=O)O)n(C)c3c-2c(Cl)ccc13 [AZD5991] + C[C@@H](Nc1cc(F)cc(F)c1)c1cc(C(=O)N(C)C)cc2c(=O)cc(N3CCOCC3)oc12 [AZD8186] (first compound max 1 µM, 7x7, partner max 3 µM)",0.0005,-0.0058,0.0209,-0.0303,-0.0148,-0.0291,0.0033,-0.024,-0.0127,-0.0917,0.0878,0.0381,-0.0181,-0.0111,-0.097,0.0556,0.0225,-0.0006,0.0311,-0.0114
"Cn1cnc2c(F)c(Nc3ccc(Br)cc3Cl)c(C(=O)NOCCO)cc21 [Selumetinib] + C[C@@H]1COCCN1C2=NC(=NC(=C2)C3(CC3)[S@](=N)(=O)C)C4=C5C=CNC5=NC=C4 [AZD6738] (first compound max 10 µM, 7x7, partner max 10 µM)",0.0232,-0.0302,0.0065,0.0488,-0.0453,-0.039,-0.0147,-0.0546,0.0348,-0.0149,0.0239,-0.0743,-0.0604,0.0148,0.0075,-0.0338,-0.0415,0.0151,0.0315,0.0971
"CC1(C)CCC(CN2CCN(c3ccc(C(=O)NS(=O)(=O)c4ccc(NCC5CCOCC5)c([N+](=O)[O-])c4)c(Oc4cnc5[nH]ccc5c4)c3)CC2)=C(c2ccc(Cl)cc2)C1 [Venetoclax] + Cc1cc2ncnn2cc1Nc1ncc2c(n1)n(C1CCOCC1)c(=O)n2C [AZD7648] (first compound max 1 µM, 7x7, partner max 10 µM)",-0.0592,-0.0211,-0.0442,-0.0242,-0.0259,-0.0215,-0.0571,-0.0675,-0.0509,-0.0492,-0.0226,-0.02,-0.0609,-0.0474,-0.0832,0.0369,-0.0397,-0.0038,-0.0072,-0.0492
"Cn1cnc2c(F)c(Nc3ccc(Br)cc3Cl)c(C(=O)NOCCO)cc21 [Selumetinib] + CC(C)n1c(=O)n(C)c2cnc3cc(F)c(-c4ccc(OCCCN5CCCCC5)nc4)cc3c21 [AZD1390] (first compound max 10 µM, 7x7, partner max 0.3 µM)",-0.0167,0.0185,-0.112,-0.0642,-0.0001,-0.0225,-0.0257,-0.0191,-0.0626,-0.03,-0.0582,-0.0327,-0.0279,-0.0115,-0.027,-0.0165,-0.0601,0.0128,-0.064,0.0387
"COc1cc2ncnc(Nc3ccc(F)c(Cl)c3)c2cc1OCCCN1CCOCC1 [Gefitinib] + CC(C)n1c(=O)n(C)c2cnc3cc(F)c(-c4ccc(OCCCN5CCCCC5)nc4)cc3c21 [AZD1390] (first compound max 10 µM, 7x7, partner max 0.3 µM)",-0.0382,-0.0309,-0.0805,-0.104,-0.0507,-0.0325,-0.0831,-0.0405,-0.0834,-0.0778,-0.0498,-0.127,-0.064,-0.0594,-0.0771,-0.013,-0.0312,-0.0516,-0.0643,-0.0597
